For 13 compounds, Critical density, Critical pressure and Critical temperature results are on record in the NIST ThermoML archive (doi:10.1021/je0499420).

Numbers after ± are expanded uncertainties.

For series [1] the following is noted: Liquid; for Critical pressure: Direct measurement; for Critical temperature: Visual observation in an unstirred cell.
Series [2] can be described thus: xn = mol fraction of the nth substance listed. The following applies: Liquid.

As to `FC(C(F)(F)F)C(F)(F)F` [1,1,1,2,3,3,3-heptafluoropropane], in series [1], the Critical density was found to be 598 ± 14 kg/m3, the Critical pressure came to 2930 ± 12 kPa and the Critical temperature is 375 ± 0.16 K.

As to `FC(C(F)(F)F)C(F)(F)F` [1,1,1,2,3,3,3-heptafluoropropane] + COC(F)(F)C(F)(F)F, the Critical density in series [2] (x2 = 0) is listed as 598 ± 14 kg/m3.

With `FC(F)C(F)C(F)(F)F` (stereo not drawn) [1,1,1,2,3,3-hexafluoropropane], in series [1], the Critical density was 562 ± 13 kg/m3, the Critical pressure amounted to 3416 ± 12 kPa and the Critical temperature turned out to be 412.41 ± 0.16 K.

For `FC(F)C(F)C(F)(F)F` (stereo not drawn) [1,1,1,2,3,3-hexafluoropropane] + COC(F)(F)C(F)(F)F, the Critical density in series [2] (x2 = 0) is on record as 562 ± 13 kg/m3; in series [2] (x2 = 0.1546), 550 ± 13 kg/m3; in series [2] (x2 = 0.3124), 535 ± 12 kg/m3; in series [2] (x2 = 0.4485), 534 ± 12 kg/m3; in series [2] (x2 = 0.6388), 520 ± 12 kg/m3; in series [2] (x2 = 0.7888) it was 506 ± 12 kg/m3.

On to `FCC(F)(F)F` [1,1,1,2-tetrafluoroethane], for which, in series [1], the Critical density was 508 ± 12 kg/m3, the Critical pressure is reported as 4053 ± 12 kPa and the Critical temperature is given as 374.13 ± 0.16 K.

Turning to `FCC(F)(F)F` [1,1,1,2-tetrafluoroethane] + COC(F)(F)C(F)(F)F, the Critical density in series [2] (x2 = 0) came to 508 ± 12 kg/m3.

With `COC(F)(F)C(F)(F)F` [methyl pentafluoroethyl ether], in series [1], the Critical density was determined as 491 ± 11 kg/m3, the Critical pressure is reported as 2885 ± 12 kPa and the Critical temperature was found to be 406.82 ± 0.16 K.

On to `COC(F)(F)C(F)(F)F` [methyl pentafluoroethyl ether] + FC(C(F)(F)F)C(F)(F)F, for which the Critical density in series [2] (x1 = 0.1823) was 584 ± 14 kg/m3; in series [2] (x1 = 0.306) it was 558 ± 13 kg/m3; in series [2] (x1 = 0.4769), 545 ± 13 kg/m3; in series [2] (x1 = 0.6944), 531 ± 12 kg/m3; in series [2] (x1 = 0.8132), 519 ± 12 kg/m3; in series [2] (x1 = 1), 491 ± 11 kg/m3.

Regarding `COC(F)(F)C(F)(F)F` [methyl pentafluoroethyl ether] + FC(F)C(F)(F)F, the Critical density in series [2] (x1 = 0.1408) is recorded as 551 ± 13 kg/m3; in series [2] (x1 = 0.2438), 543 ± 13 kg/m3; in series [2] (x1 = 0.4346) it was 540 ± 13 kg/m3; in series [2] (x1 = 0.5897), 536 ± 12 kg/m3; in series [2] (x1 = 0.7753), 521 ± 12 kg/m3; in series [2] (x1 = 1), 491 ± 11 kg/m3.

For `COC(F)(F)C(F)(F)F` [methyl pentafluoroethyl ether] + FC(F)C(F)C(F)(F)F, the Critical density in series [2] (x1 = 1) worked out at 491 ± 11 kg/m3.

As to `COC(F)(F)C(F)(F)F` [methyl pentafluoroethyl ether] + FCC(F)(F)F, the Critical density is reported as 508 ± 12 kg/m3 in series [2] (x1 = 0.1167); 512 ± 12 kg/m3 in series [2] (x1 = 0.2446); 509 ± 12 kg/m3 in series [2] (x1 = 0.4299); 506 ± 12 kg/m3 in series [2] (x1 = 0.5886); 503 ± 12 kg/m3 in series [2] (x1 = 0.7674); 491 ± 11 kg/m3 in series [2] (x1 = 1).

Regarding `FC(F)C(F)(F)F` [pentafluoroethane], in series [1], the Critical density is reported as 560 ± 13 kg/m3, the Critical pressure was 3617 ± 12 kPa and the Critical temperature was 339.2 ± 0.16 K.

`FC(F)C(F)(F)F` [pentafluoroethane] + COC(F)(F)C(F)(F)F: the Critical density in series [2] (x2 = 0) amounted to 560 ± 13 kg/m3.
